Laboratory results taken from publication PMC3465515 (Nuclear medicine and biology, 2012).
Like-named read-outs stand apart in the source and are kept apart here.

Key:
[1] = preliminary tissue distribution of [18F]6 in female C57BL/6 mice; format: in vivo; conditions: data not shown
[2] = format: in vivo, Sprague-Dawley rats; conditions: 1 h, Letrozole + PMSG treated
[3] = biodistribution of [18F]6 in immature female Sprague-Dawley rats; format: in vivo; conditions: 1 h

- tissue distribution (in words) [1]: elevated lung uptake
- percentage injected dose/gram, blood ([2]; DPN blocked (200 μg)): 0.17 ± 0.03 %ID/g
- percentage injected dose/gram, blood ([2]; E2 blocked (estradiol 20 μg)): 0.19 ± 0.02 %ID/g
- percentage injected dose/gram, blood ([2]; PPT blocked (200 μg)): 0.16 ± 0.03 %ID/g
- percentage injected dose/gram, blood ([2]; 18 μCi iv): 0.23 ± 0.07 %ID/g
- percentage injected dose/gram, bone ([2]; DPN blocked (200 μg)): 0.37 ± 0.07 %ID/g
- percentage injected dose/gram, bone ([2]; E2 blocked (estradiol 20 μg)): 0.33 ± 0.02 %ID/g
- percentage injected dose/gram, bone ([2]; PPT blocked (200 μg)): 0.34 ± 0.05 %ID/g
- percentage injected dose/gram, bone ([2]; 18 μCi iv): 0.40 ± 0.10 %ID/g
- percentage injected dose/gram, fat ([2]; DPN blocked (200 μg)): 0.53 ± 0.18 %ID/g
- percentage injected dose/gram, fat ([2]; E2 blocked (estradiol 20 μg)): 0.50 ± 0.11 %ID/g
- percentage injected dose/gram, fat ([2]; PPT blocked (200 μg)): 0.53 ± 0.16 %ID/g
- percentage injected dose/gram, fat ([2]; 18 μCi iv): 0.49 ± 0.12 %ID/g
- percentage injected dose/gram, heart ([2]; DPN blocked (200 μg)): 0.15 ± 0.02 %ID/g
- percentage injected dose/gram, heart ([2]; E2 blocked (estradiol 20 μg)): 0.14 ± 0.01 %ID/g
- percentage injected dose/gram, heart ([2]; PPT blocked (200 μg)): 0.14 ± 0.02 %ID/g
- percentage injected dose/gram, heart ([2]; 18 μCi iv): 0.17 ± 0.03 %ID/g
- percentage injected dose/gram, kidney ([2]; DPN blocked (200 μg)): 0.59 ± 0.11 %ID/g
- percentage injected dose/gram, kidney ([2]; E2 blocked (estradiol 20 μg)): 0.55 ± 0.08 %ID/g
- percentage injected dose/gram, kidney ([2]; PPT blocked (200 μg)): 0.51 ± 0.09 %ID/g
- percentage injected dose/gram, kidney ([2]; 18 μCi iv): 0.66 ± 0.12 %ID/g
- percentage injected dose/gram, liver ([2]; DPN blocked (200 μg)): 1.41 ± 0.22 %ID/g
- percentage injected dose/gram, liver ([2]; E2 blocked (estradiol 20 μg)): 1.51 ± 0.13 %ID/g
- percentage injected dose/gram, liver ([2]; PPT blocked (200 μg)): 1.40 ± 0.12 %ID/g
- percentage injected dose/gram, liver ([2]; 18 μCi iv): 1.67 ± 0.31 %ID/g
- percentage injected dose/gram, lung ([2]; DPN blocked (200 μg)): 0.36 ± 0.05 %ID/g
- percentage injected dose/gram, lung ([2]; E2 blocked (estradiol 20 μg)): 0.38 ± 0.04 %ID/g
- percentage injected dose/gram, lung ([2]; PPT blocked (200 μg)): 0.36 ± 0.06 %ID/g
- percentage injected dose/gram, lung ([2]; 18 μCi iv): 0.41 ± 0.02 %ID/g
- percentage injected dose/gram, muscle ([2]; DPN blocked (200 μg)): 0.13 ± 0.02 %ID/g
- percentage injected dose/gram, muscle ([2]; E2 blocked (estradiol 20 μg)): 0.12 ± 0.01 %ID/g
- percentage injected dose/gram, muscle ([2]; PPT blocked (200 μg)): 0.12 ± 0.02 %ID/g
- percentage injected dose/gram, muscle ([2]; 18 μCi iv): 0.14 ± 0.03 %ID/g
- percentage injected dose/gram, ovaries ([2]; DPN blocked (200 μg)): 0.32 ± 0.10 %ID/g
- percentage injected dose/gram, ovaries ([2]; E2 blocked (estradiol 20 μg)): 0.30 ± 0.06 %ID/g
- percentage injected dose/gram, ovaries ([2]; PPT blocked (200 μg)): 0.30 ± 0.05 %ID/g
- percentage injected dose/gram, ovaries ([2]; 18 μCi iv): 0.34 ± 0.04 %ID/g
- percentage injected dose/gram, spleen ([2]; DPN blocked (200 μg)): 0.12 ± 0.01 %ID/g
- percentage injected dose/gram, spleen ([2]; E2 blocked (estradiol 20 μg)): 0.12 ± 0.07 %ID/g
- percentage injected dose/gram, spleen ([2]; PPT blocked (200 μg)): 0.12 ± 0.02 %ID/g
- percentage injected dose/gram, spleen ([2]; 18 μCi iv): 0.13 ± 0.16 %ID/g
- percentage injected dose/gram, thymus ([2]; DPN blocked (200 μg)): 0.09 ± 0.02 %ID/g
- percentage injected dose/gram, thymus ([2]; E2 blocked (estradiol 20 μg)): 0.10 ± 0.01 %ID/g
- percentage injected dose/gram, thymus ([2]; PPT blocked (200 μg)): 0.08 ± 0.01 %ID/g
- percentage injected dose/gram, thymus ([2]; 18 μCi iv): 0.10 ± 0.01 %ID/g
- percentage injected dose/gram, uterus ([2]; DPN blocked (200 μg)): 0.22 ± 0.03 %ID/g
- percentage injected dose/gram, uterus ([2]; E2 blocked (estradiol 20 μg)): 0.20 ± 0.04 %ID/g
- percentage injected dose/gram, uterus ([2]; PPT blocked (200 μg)): 0.19 ± 0.02 %ID/g
- percentage injected dose/gram, uterus ([2]; 18 μCi iv): 0.26 ± 0.07 %ID/g
- percentage injected dose/gram, blood ([3]; DPN blocked (200 μg)): 0.22 ± 0.03 %ID/g
- percentage injected dose/gram, blood ([3]; E2 blocked (estradiol 20 μg)): 0.25 ± 0.07 %ID/g
- percentage injected dose/gram, blood ([3]; PPT blocked (200 μg)): 0.24 ± 0.06 %ID/g
- percentage injected dose/gram, blood ([3]; 13 μCi iv): 0.22 ± 0.05 %ID/g
- percentage injected dose/gram, bone ([3]; DPN blocked (200 μg)): 0.40 ± 0.04 %ID/g
- percentage injected dose/gram, bone ([3]; E2 blocked (estradiol 20 μg)): 0.37 ± 0.04 %ID/g
- percentage injected dose/gram, bone ([3]; PPT blocked (200 μg)): 0.43 ± 0.12 %ID/g
- percentage injected dose/gram, bone ([3]; 13 μCi iv): 0.36 ± 0.04 %ID/g
- percentage injected dose/gram, fat ([3]; DPN blocked (200 μg)): 0.58 ± 0.08 %ID/g
- percentage injected dose/gram, fat ([3]; E2 blocked (estradiol 20 μg)): 0.58 ± 0.10 %ID/g
- percentage injected dose/gram, fat ([3]; PPT blocked (200 μg)): 0.68 ± 0.19 %ID/g
- percentage injected dose/gram, fat ([3]; 13 μCi iv): 0.55 ± 0.09 %ID/g
- percentage injected dose/gram, heart ([3]; DPN blocked (200 μg)): 0.18 ± 0.03 %ID/g
- percentage injected dose/gram, heart ([3]; E2 blocked (estradiol 20 μg)): 0.21 ± 0.04 %ID/g
- percentage injected dose/gram, heart ([3]; PPT blocked (200 μg)): 0.19 ± 0.04 %ID/g
- percentage injected dose/gram, heart ([3]; 13 μCi iv): 0.18 ± 0.04 %ID/g
- percentage injected dose/gram, kidney ([3]; DPN blocked (200 μg)): 0.70 ± 0.10 %ID/g
- percentage injected dose/gram, kidney ([3]; E2 blocked (estradiol 20 μg)): 0.78 ± 0.15 %ID/g
- percentage injected dose/gram, kidney ([3]; PPT blocked (200 μg)): 0.78 ± 0.19 %ID/g
- percentage injected dose/gram, kidney ([3]; 13 μCi iv): 0.64 ± 0.14 %ID/g
- percentage injected dose/gram, liver ([3]; DPN blocked (200 μg)): 1.50 ± 0.20 %ID/g
- percentage injected dose/gram, liver ([3]; E2 blocked (estradiol 20 μg)): 1.63 ± 0.26 %ID/g
- percentage injected dose/gram, liver ([3]; PPT blocked (200 μg)): 1.54 ± 0.39 %ID/g
- percentage injected dose/gram, liver ([3]; 13 μCi iv): 1.52 ± 0.23 %ID/g
- percentage injected dose/gram, lung ([3]; DPN blocked (200 μg)): 0.33 ± 0.05 %ID/g
- percentage injected dose/gram, lung ([3]; E2 blocked (estradiol 20 μg)): 0.39 ± 0.06 %ID/g
- percentage injected dose/gram, lung ([3]; PPT blocked (200 μg)): 0.45 ± 0.12 %ID/g
- percentage injected dose/gram, lung ([3]; 13 μCi iv): 0.39 ± 0.09 %ID/g
- percentage injected dose/gram, muscle ([3]; DPN blocked (200 μg)): 0.15 ± 0.01 %ID/g
- percentage injected dose/gram, muscle ([3]; E2 blocked (estradiol 20 μg)): 0.19 ± 0.05 %ID/g
- percentage injected dose/gram, muscle ([3]; PPT blocked (200 μg)): 0.19 ± 0.05 %ID/g
- percentage injected dose/gram, muscle ([3]; 13 μCi iv): 0.15 ± 0.03 %ID/g
- percentage injected dose/gram, ovaries ([3]; DPN blocked (200 μg)): 0.33 ± 0.04 %ID/g
- percentage injected dose/gram, ovaries ([3]; E2 blocked (estradiol 20 μg)): 0.44 ± 0.15 %ID/g
- percentage injected dose/gram, ovaries ([3]; PPT blocked (200 μg)): 0.37 ± 0.13 %ID/g
- percentage injected dose/gram, ovaries ([3]; 13 μCi iv): 0.30 ± 0.11 %ID/g
- percentage injected dose/gram, spleen ([3]; DPN blocked (200 μg)): 0.15 ± 0.02 %ID/g
- percentage injected dose/gram, spleen ([3]; E2 blocked (estradiol 20 μg)): 0.16 ± 0.03 %ID/g
- percentage injected dose/gram, spleen ([3]; PPT blocked (200 μg)): 0.16 ± 0.05 %ID/g
- percentage injected dose/gram, spleen ([3]; 13 μCi iv): 0.15 ± 0.03 %ID/g
- percentage injected dose/gram, thymus ([3]; DPN blocked (200 μg)): 0.12 ± 0.02 %ID/g
- percentage injected dose/gram, thymus ([3]; E2 blocked (estradiol 20 μg)): 0.13 ± 0.03 %ID/g
- percentage injected dose/gram, thymus ([3]; PPT blocked (200 μg)): 0.12 ± 0.02 %ID/g
- percentage injected dose/gram, thymus ([3]; 13 μCi iv): 0.12 ± 0.03 %ID/g
- percentage injected dose/gram, uterus ([3]; DPN blocked (200 μg)): 0.23 ± 0.05 %ID/g
- percentage injected dose/gram, uterus ([3]; E2 blocked (estradiol 20 μg)): 0.38 ± 0.25 %ID/g
- percentage injected dose/gram, uterus ([3]; PPT blocked (200 μg)): 0.35 ± 0.15 %ID/g
- percentage injected dose/gram, uterus ([3]; 13 μCi iv): 0.33 ± 0.14 %ID/g
Structure (SMILES): C[C@]12CC[C@@H]3c4ccc(O)cc4CC[C@@]3(CC[18F])[C@@H]1CC[C@@H]2O [[^18F]6, 8β-(2-[^18F]fluoroethyl)estradiol]
- blocking of ovary uptake by estradiol, DPN or PPT (in words) ([3]; ovary): nor was it substantially blocked by any of the three agents
